The nature of assay [1]: Plasma insulin level before and after treatment in mice. The class given is in vivo. As to the method: The 4-week-old male ICR mice were purchased from the Animal Center of the College of Medicine, National Taiwan University (Taipei, Taiwan) with delicate humane care. This animal study was conducted by following the University ethical guidelines and the ‘Guide for the Care and Use of Laboratory Animals’ published by the US National Institutes of Health (NIH publication no. 85-23, revised 1996). The animal experiments were approved by the Institutional Animal Care and Use Committee (IACUC) of the National Taiwan University (IACUC No. 20110073). Animals were housed in a room at the constant temperature, 22±1° C., with 12 hours light and dark cycles.
(§1) After three days of acclimatization, the mice had free access to a standard rodent chow (normal mice), a standard rodent chow after single 250 mgkg^−1 streptozotocin (STZ) intraperitoneal injection (TIDM mice), and a fat-rich chow diet and fructose-sweetened water (T2DM mice) for 4 weeks. The induction of Type 1 DM was assessed and confirmed when the mice had plasma glucose levels ≧350 mgdL^−1, accompanied with polyuria, hyperphagia and decreased body weight. The induction Type 2 DM in the mice was assessed by measuring fasting plasma glucose levels and confirmed when plasma glucose level was ≧150 mgdL^−1 after the 4-week induction. The animals were assigned randomly into three groups, with seven animals in each group. In group I, the mice were treated with vehicle, 2% DMSO in normal saline, as the negative control. In group II, the mice were intraperitoneally treated with borapetoside A (0.1-10 mgkg^−1). In […], the mice received intraperitoneally metformin (300 mgkg^−1; Sigma Chemical Co., St. Louis, Mo., U.S.A.) or insulin (0.5 IUkg^−1; Insulin Actrapid® HM; Novo Nordisk, Denmark). In the acute study, mice under anesthesia received a single intraperitoneal administration of borapetoside A, negative control, or positive control. In the subacute study, mice received intraperitoneal administrations of borapetoside A, vehicle, or insulin twice a day for seven days.
(§2) Blood samples were collected from the orbital vascular plexus of the mice under anesthesia. Blood samples were then centrifuged at 13000 rpm for 5 min, and the plasma samples were collected and kept on ice prior to the assay. The plasma glucose concentration was measured by Glucose Kit Reagent (Biosystems S.A., Barcelona, Spain) following the manufacturer's instructions, and the insulin levels were estimated using mouse insulin ELISA kit (Mercodia AB, Uppsala, Sweden).

The nature of assay [2]: Intraperitoneal glucose tolerance test. It counts as in vivo, mice. The note with it: metformin-treated group, compared to the vehicle group, normal and type 2 DM mice. The protocol: as §1, §2
The mice were maintained under anesthesia throughout the procedure. Glucose (2.0 gkg^−1) was administered intraperitoneally. Blood samples were collected from the orbital vascular plexus at 0, 30, 60, 120 min. The concentrations of the plasma glucose were measured, and the values of AUC were calculated accordingly.

Assay [3] concerns IL-6-treated C2C12 cells. Briefly: Glycogen content assay in IL-6-induced insulin resistant C2C12 cells. It counts as cell-based. The settings on record: IL-6-treated C2C12, 1 nM insulin, 30 minutes. As to the method: The C2C12 skeletal muscle cells were cultured in Dulbecco's modified Eagle's medium (DMEM; Gibco/Invitrogen, Carlsbad, Calif.), and the human hepatocellular carcinoma cell line, Hl-ep3B, was cultured in Roswell Park Memorial Institute medium 1640 (RPMI 1640 medium; Gibco/Invitrogen, Carlsbad, Calif.). Cells were cultured at 37° C. in the humidified incubator supplied with 5% CO2. Culture mediums were supplemented with 4.5 mgmL^−1 glucose, penicillin 100 IUmL^−1, streptomycin 100 μgmL^−1 and 10% fetal bovine serum (Gibco/Invitrogen, Carlsbad, Calif.). Only C2C12 cells were then switched to 2% horse serum for 3 days after reaching the 70% confluence. Myotubes formation was achieved after 4 days of incubation, and the cells were used for subsequent experiments. Culture mediums were replaced by serum free DMEM or RPMI for 24 h before experiments (see e.g., procedure described in Sultan et al., 2006).
C2C12 and Hep3B cells were treated with 1 nM insulin, 100 μM metformin, and the assigned concentration of borapetoside A for 30 minutes. To develop the insulin resistance state of cells, C2C12 cells were incubated with IL-6 at 20 ngmL^−1 for 1 hour. Later, the cells were treated with 1 nM insulin, 100 μM metformin, and the assigned concentration of borapetoside A for 30 minutes. After the assigned treatment, cells were washed twice with phosphate buffered saline (PBS). Glycogen content was measured as previously described, with some modifications (see e.g., Savage et al., 2008). The protein concentrations of the cell lysates were determined by using Pierce BCA Protein Assay Kit (Thermo-Scientific, Rockford, Ill.). The glycogen content of each sample was normalized by total protein.

The test system of assay [4] is soleus muscle. In words: Glycogen content in soleus muscle in vivo. The arrangement: species or system mice. The note with it: mice with type 2 DM, insulin 0.5 IUkg^−1 i.p. As to the method: (§3) The mice were injected with borapetoside A (10 mgkg^−1, interperitoneal) for 60 minutes or insulin (0.5 IUkg^−1, interperitoneal) for 30 minutes. After the treatment, the anesthetic mice were sacrificed by cervical dislocation to collect the soleus muscle and liver. About 40 mg of each sample was dissolved in 1 mol/L KOH at 75° C. for 30 min. The dissolved homogenate was neutralized by glacial acetic acid and then incubated overnight in acetate buffer (0.3 mol/L sodium acetate, pH 4.8) containing amyloglucosidase (Sigma, St. Louis, Mo.). The mixture was then neutralized with 1 mol/L NaOH to stop the reaction. The glycogen contents in the tissue samples were determined as μg of glucose per mg of tissue (wet weight).

Assay [5] has as its system liver. In words: Glycogen content in liver in vivo. The arrangement: species or system mice. The settings on record: mice with type 2 DM, insulin 0.5 IUkg^−1 i.p. The protocol: as §3

This note sets out measurements from patent publication US20150265644A1, “THERAPEUTIC METHODS AND COMPOSITIONS FOR TREATING DIABETES UTILIZING DITERPENOID COMPOUNDS” (Orient Europharma Co., Ltd., priority 2014, published 2015).

Regarding `CN(C)C(=N)N=C(N)N` [Metformin, metformin, reference compound], the Plasma insulin stood at 22.7 ± 0.3 pmol/L in assay [1] (T1DM mice, metformin 300 mgkg^−1, after-treatment); 22.4 ± 0.4 pmol/L in assay [1] (T1DM mice, metformin 300 mgkg^−1, before-treatment); 182.0 ± 27.7 pmol/L in assay [1] (T2DM mice, metformin 300 mgkg^−1, after-treatment); 148.1 ± 15.2 pmol/L in assay [1] (T2DM mice, metformin 300 mgkg^−1, before-treatment); 72 ± 3.1 pmol/L in assay [1] (normal mice, metformin 300 mgkg^−1, after-treatment); 66.6 ± 1.3 pmol/L in assay [1] (normal mice, metformin 300 mgkg^−1, before-treatment). Moreover, the “increase of plasma glucose level at 30 min” value in assay [2] was “significantly suppressed”.

Turning to “insulin: short-acting insulin, Insulin Actrapid HM (Novo Nordisk), positive control 0.5 IUkg^−1 [reference compound]”, in assay [3], the glycogen content result was “not increased”. Moreover, in assay [4], the “glycogen synthesis in soleus muscle” value is recorded as “failed to enhance”. For the same compound, the “glycogen synthesis in liver” value in assay [5] was “failed to enhance”.
